The source made the active and inactive calls. No cut-off for these calls is given here.

Data set [1] deals with Caco-2. In words: (§1) Drug recovery in Homo sapiens (human) Caco2 cells at 100 uM by HPLC-UV analysis. It is filed as ADME, cell-based. Conditions: caco-2, 100 µM.
The species named for data set [2] is Homo sapiens. In words: Non-competitive inhibition of Homo sapiens (human) P-glycoprotein ATPase activity at 200 uM after 40 min by luminescence analysis.
Data set [3] is described as follows: Apparent permeability from apical to basolateral side of Homo sapiens (human) Caco2 cells at 100 uM by HPLC-UV analysis. Format: ADME, cell-based. Conditions: Caco-2. On the technique in general: Caco-2 cells form a polarised layer with tight junctions and transporters.
Data set [4] deals with T1, ATP-dependent translocase ABCB1 (Homo sapiens, UniProt P08183). In words: Inhibition of P-glycoprotein in doxorubicin-resistant Homo sapiens (human) K562 cells overexpressing P-gp assessed as increase in intracellular Rh123 accumulation at 10 to 20 uM after 1 hr by flow cytometric analysis. It is filed as cell-based. Conditions: k562, 1 h.
Data set [5] addresses T1, ATP-dependent translocase ABCB1. In words: Activation of P-glycoprotein in doxorubicin-resistant Homo sapiens (human) K562 cells overexpressing P-gp assessed as decrease in intracellular Rh123 accumulation at 10 to 20 uM after 1 hr by flow cytometric analysis. Format: cell-based. Conditions: k562, 1 h. On the technique in general: In flow cytometry, cells or beads pass a laser one at a time.

The nature of data set [6]: as §1. It is filed as ADME, cell-based, Caco-2. Conditions: Caco-2, read-out: Drug recovery.

T1 sequence (P08183 whole entry): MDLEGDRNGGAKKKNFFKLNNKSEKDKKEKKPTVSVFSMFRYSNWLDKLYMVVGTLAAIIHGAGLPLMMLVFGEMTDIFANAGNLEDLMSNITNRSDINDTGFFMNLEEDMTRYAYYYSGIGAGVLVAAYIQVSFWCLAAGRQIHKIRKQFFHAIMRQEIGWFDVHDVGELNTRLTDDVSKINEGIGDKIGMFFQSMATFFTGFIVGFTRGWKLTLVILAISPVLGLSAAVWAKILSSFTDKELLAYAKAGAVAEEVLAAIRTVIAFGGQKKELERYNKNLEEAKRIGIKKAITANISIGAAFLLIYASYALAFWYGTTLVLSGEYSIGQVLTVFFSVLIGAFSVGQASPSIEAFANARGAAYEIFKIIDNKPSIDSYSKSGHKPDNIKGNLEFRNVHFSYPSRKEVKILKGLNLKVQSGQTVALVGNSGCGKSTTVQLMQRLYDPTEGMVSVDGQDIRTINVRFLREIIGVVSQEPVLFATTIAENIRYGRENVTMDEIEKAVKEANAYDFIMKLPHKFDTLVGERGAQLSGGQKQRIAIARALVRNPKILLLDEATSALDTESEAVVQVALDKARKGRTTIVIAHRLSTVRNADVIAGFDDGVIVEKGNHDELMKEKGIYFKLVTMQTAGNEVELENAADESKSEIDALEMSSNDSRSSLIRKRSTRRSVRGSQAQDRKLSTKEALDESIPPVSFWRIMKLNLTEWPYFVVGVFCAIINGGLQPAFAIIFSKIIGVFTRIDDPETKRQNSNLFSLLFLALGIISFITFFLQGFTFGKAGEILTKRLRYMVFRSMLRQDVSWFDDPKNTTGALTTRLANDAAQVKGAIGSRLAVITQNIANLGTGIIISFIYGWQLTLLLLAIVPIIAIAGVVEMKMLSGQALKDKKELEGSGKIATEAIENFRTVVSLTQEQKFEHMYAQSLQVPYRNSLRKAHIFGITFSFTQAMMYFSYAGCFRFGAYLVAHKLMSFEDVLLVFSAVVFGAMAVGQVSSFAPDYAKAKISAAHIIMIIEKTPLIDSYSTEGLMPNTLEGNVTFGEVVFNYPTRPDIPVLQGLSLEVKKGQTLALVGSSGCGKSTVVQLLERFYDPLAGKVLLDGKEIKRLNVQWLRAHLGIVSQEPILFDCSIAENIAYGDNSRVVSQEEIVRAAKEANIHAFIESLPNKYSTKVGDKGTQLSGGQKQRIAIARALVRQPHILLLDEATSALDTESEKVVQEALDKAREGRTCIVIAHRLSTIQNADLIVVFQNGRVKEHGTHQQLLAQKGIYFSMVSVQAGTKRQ

Broadly, the Papp A→B is the apparent permeability from the apical to the basolateral side of a cell layer. Compound `COc1cc(C2Oc3ccc4c(=O)c5ccccc5oc4c3OC2CO)ccc1O` (stereo not given) returned a Drug recovery in data set [1] of 164.7%. Also, the inhibition result in data set [2] is “Active”. Further, the Papp A→B at 100 µM in data set [3] stood at 14.4 ×10⁻⁶ cm/s. Further, the “inhibition (INH)” value in data set [4] is “Active”.

Take `COc1ccc(CCN(C)CCCC(C#N)(c2ccc(OC)c(OC)c2)C(C)C)cc1OC` (stereo not given): the “inhibition (INH)” value in data set [4] is listed as “Active”.

On to `O=c1c2ccccc2oc2ccc(O)c(O)c12`, for which the result in data set [5] was Active. Moreover, the recovery at 100 µM in data set [6] was 40.7%. Besides, the Papp A→B at 100 µM in data set [3] amounted to 15.2 ×10⁻⁶ cm/s.

`O=c1c2ccccc2oc2c(O)c(O)ccc12` [3,4-DIHYDROXYXANTHONE]: in data set [5], the outcome was Active. Besides, the recovery at 100 µM in data set [6] is 53.6%. Further, in data set [3], the Papp A→B at 100 µM was 19.4 ×10⁻⁶ cm/s.

`CC1(C)CCc2cc3c(=O)c4ccccc4oc3c(O)c2O1`: the recovery at 100 µM in data set [6] came to 29.4%. The inhibition entry in data set [2] is “Active”. For the same compound, the Papp A→B at 100 µM in data set [3] was determined as 14.2 ×10⁻⁶ cm/s. Further, the “inhibition (INH)” value in data set [4] was “Active”.

The record behind these values is ChEMBL document CHEMBL3045760, “Bioactive xanthones with effect on P-glycoprotein and prediction of intestinal absorption” (Med Chem Res, 2013).
